# Assay results: US20070004634A1 (Novo Nordisk A/S, priority 1998, published 2007)
# Residues, ends and D or L forms follow the SMILES beside them. No end group written: not given here.
# How the values were obtained:
# IR [1] = assay: IR activity (agonist/antagonist) of MBP-peptide fusions, Table 10; test not named; conditions: MBP-peptide fusion proteins; one symbol per monomer unit
# [2] = test system: FDC-P2 cells expressing the IL-3 and human IGF-1R receptors; assay: IGF-1 proliferation assay in FDC-P2 cells, antagonist format
# [3] = test system: FDC-P2 cells expressing the IL-3 and human IGF-1R receptors; assay: IGF-1 proliferation assay in FDC-P2 cells, agonist format; conditions: FDC-P2 cells
# MiaPaCa cells [4] = assay: MiaPaCa cell proliferation assay, IGF-1R agonist format; format: cell-based, human; conditions: MiaPaCa cell proliferation, agonist effect
# MiaPaCa cells [5] = test system: MiaPaCa cells
# IGF-1R [6] = target: T1, IGF-1R (Homo sapiens, UniProt P08069); assay: TR-FRET dissociation of biotinylated-20E2 from rhIGF-1R; format: binding; conditions: peptides 100 μM, IGF-1 30 μM
# T1 sequence (P08069 31-736 limits assumed): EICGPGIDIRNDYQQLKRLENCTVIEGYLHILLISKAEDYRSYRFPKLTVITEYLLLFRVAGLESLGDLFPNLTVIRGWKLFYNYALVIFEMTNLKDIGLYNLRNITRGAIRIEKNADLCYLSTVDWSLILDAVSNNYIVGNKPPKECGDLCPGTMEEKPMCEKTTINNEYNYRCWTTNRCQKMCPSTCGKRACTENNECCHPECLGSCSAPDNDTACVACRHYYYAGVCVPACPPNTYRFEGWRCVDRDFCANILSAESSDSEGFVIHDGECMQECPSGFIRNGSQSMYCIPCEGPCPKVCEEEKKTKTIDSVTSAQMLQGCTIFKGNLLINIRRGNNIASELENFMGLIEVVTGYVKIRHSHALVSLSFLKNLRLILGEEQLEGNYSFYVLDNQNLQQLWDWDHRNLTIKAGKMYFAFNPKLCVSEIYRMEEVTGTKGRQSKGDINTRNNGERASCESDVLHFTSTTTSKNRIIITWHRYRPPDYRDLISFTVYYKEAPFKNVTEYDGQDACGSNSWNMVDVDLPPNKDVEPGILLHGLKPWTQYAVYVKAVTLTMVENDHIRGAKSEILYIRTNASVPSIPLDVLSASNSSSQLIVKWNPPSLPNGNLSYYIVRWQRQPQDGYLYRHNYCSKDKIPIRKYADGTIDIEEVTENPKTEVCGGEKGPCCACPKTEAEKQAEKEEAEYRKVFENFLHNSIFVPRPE
# T1 sequence (P08069 741-935 limits assumed): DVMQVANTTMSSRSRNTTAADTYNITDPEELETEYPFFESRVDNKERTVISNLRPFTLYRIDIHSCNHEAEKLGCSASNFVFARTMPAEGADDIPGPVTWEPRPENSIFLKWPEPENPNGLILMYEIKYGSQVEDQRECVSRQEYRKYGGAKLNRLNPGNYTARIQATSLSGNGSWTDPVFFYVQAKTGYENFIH
# Procedure: Best fit non-linear regression analysis of the data, was used to determine dissociation rate constants. Each data point represents a single observation. […] Reactions were allowed to reach equilibrium for 6 h at RT.
# [7] = target: His-tagged soluble recombinant human IGF-IR (srhIGF-1R-his) (Homo sapiens, UniProt P08069); assay: ALPHAScreen competition, b-hIGF-1 binding to srhIGF-1R-his; conditions: read-out: Affin.; AlphaScreen assay versus IGF-1
# His-tagged soluble recombinant human IGF-IR (srhIGF-1R-his), sequence (P08069 31-736 limits assumed): as the sequence (P08069 31-736 limits assumed) above
# His-tagged soluble recombinant human IGF-IR (srhIGF-1R-his), sequence (P08069 741-935 limits assumed): as the sequence (P08069 741-935 limits assumed) above
# IR [8] = target: IR (Homo sapiens, UniProt P06213); assay: IR-Kd; set-up: replacing the transmembrane domain and the intracellular domain of IR with constant domains from immunoglobulin Fc or λ subunits; made in house; host or cells: human embryonic kidney 293 cells (Bass et al.)
# IR (Homo sapiens, UniProt P06213), sequence (P06213 28-758 limits assumed): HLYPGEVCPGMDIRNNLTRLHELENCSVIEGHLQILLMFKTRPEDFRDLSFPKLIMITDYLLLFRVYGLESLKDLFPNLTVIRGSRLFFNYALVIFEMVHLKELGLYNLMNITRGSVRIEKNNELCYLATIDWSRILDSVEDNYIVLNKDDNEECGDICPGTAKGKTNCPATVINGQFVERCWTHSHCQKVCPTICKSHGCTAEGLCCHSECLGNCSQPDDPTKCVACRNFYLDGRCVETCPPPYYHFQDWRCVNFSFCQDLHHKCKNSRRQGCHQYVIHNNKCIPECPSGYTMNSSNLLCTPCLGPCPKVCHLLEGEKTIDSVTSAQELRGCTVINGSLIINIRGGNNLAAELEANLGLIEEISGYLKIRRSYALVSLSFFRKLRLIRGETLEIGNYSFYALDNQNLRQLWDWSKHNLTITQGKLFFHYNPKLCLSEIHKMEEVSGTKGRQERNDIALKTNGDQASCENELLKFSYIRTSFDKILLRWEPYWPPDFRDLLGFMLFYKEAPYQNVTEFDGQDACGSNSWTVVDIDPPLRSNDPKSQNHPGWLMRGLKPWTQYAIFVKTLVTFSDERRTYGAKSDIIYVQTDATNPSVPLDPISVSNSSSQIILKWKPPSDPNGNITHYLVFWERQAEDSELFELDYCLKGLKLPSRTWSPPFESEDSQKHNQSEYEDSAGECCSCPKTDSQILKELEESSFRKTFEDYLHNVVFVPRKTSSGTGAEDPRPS
# IR (Homo sapiens, UniProt P06213), sequence (P06213 763-1382 limits assumed): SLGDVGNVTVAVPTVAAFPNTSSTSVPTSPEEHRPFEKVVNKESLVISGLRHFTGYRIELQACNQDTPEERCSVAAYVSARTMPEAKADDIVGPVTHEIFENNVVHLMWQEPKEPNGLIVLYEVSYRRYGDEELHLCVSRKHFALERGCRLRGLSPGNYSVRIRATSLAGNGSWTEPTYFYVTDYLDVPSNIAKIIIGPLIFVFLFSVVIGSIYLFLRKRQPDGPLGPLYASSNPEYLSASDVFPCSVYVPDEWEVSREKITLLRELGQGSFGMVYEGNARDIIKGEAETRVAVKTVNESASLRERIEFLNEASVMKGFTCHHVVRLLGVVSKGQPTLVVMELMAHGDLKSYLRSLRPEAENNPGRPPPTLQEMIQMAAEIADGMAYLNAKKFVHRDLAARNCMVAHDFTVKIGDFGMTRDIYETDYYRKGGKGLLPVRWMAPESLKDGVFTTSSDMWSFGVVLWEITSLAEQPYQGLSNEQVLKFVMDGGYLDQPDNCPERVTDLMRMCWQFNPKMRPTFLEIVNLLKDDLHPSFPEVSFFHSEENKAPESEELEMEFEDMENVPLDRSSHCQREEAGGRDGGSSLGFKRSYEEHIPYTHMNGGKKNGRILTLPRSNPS
# Source text: Table printed on a drawing sheet, FIG. 5B
# The patent's description of the figure: FIG. 5A: Summary of specific representative amino acid sequences from Formulas 1, 4, 6, and 10 (SEQ ID NOS:1155-1180).
# FIG. 5B: Summary of specific representative amino acid sequences from Formulas 1, 4, 6, and 10 (SEQ ID NOS:1181-1220).
# First copying reader's note: The scan is skewed, so values in the right-hand columns sit slightly higher than their clone names, and their rows were assigned by following the ruled lines.
# Where the first naming reader finds the target: head: IR-Kd
# [9] = target: T2, soluble human insulin receptor-immunoglobulin heavy chain chimera (sIR-Fc) (Homo sapiens, UniProt P06213); assay: TR-FRET competition with biotinylated S175 (b-S175) for sIR-Fc; format: binding; conditions: Hill slope, target sIR-Fc, label b-S175
# T2 construct: replacing the transmembrane domain and the intracellular domain of IR with constant domains from immunoglobulin Fc or λ subunits; made in house; host or cells: human embryonic kidney 293 cells (Bass et al.)
# T2 sequence (P06213 28-758 limits assumed, stated change not applied): as the sequence (P06213 28-758 limits assumed) above
# T2 sequence (P06213 763-956 limits assumed, stated change not applied): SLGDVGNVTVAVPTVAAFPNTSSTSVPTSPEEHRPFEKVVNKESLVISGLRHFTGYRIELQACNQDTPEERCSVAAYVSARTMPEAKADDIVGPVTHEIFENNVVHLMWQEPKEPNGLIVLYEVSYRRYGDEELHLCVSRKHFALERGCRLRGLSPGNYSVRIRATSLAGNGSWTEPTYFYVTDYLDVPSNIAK
# [10] = test system: free fat cells (adipocytes); assay: Adipocyte / free fat cell (FFC) assay, 3H glucose incorporation into lipid; conditions: free fat cell assay class, Table 9
# [11] = target: T2, soluble human insulin receptor-immunoglobulin heavy chain chimera (sIR-Fc); assay: Fluorescence polarization, competition with FITC-RP9 for sIR-Fc; format: binding
# IGF-1R [12] = target: T1, IGF-1R; assay: TR-FRET competition with biotinylated-20E2 for rhIGF-1R; conditions: TR-FRET (rhIGF-1R, b-20E2) versus FP (sIR-Fc), summary of Table 22
# [13] = target: T3, soluble HIR ectodomain (sIR) (Homo sapiens, UniProt P06213); assay: Fluorescence polarization, competition with FITC-RP9 for sIR; format: binding; conditions: Hill slope, target sIR, label FITC-RP9
# T3 construct: soluble HIR ectodomain (sIR); Kristensen et al., 1998
# T3 sequence (P06213 28-758 limits assumed): as the sequence (P06213 28-758 limits assumed) above
# T3 sequence (P06213 763-956 limits assumed): as the sequence (P06213 763-956 limits assumed, stated change not applied) above
# [14] = target: T4, insulin receptor construct transfected into 32D cells (Homo sapiens, UniProt P06213); assay: IR autophosphorylation assay in IR transfected 32D cells (ELISA); format: cell-based; conditions: tested as MBP fusion peptides
# T4 construct: expressed in transfected cells; host or cells: 32D cells (clone 969)
# T4 sequence (P06213 28-758 limits assumed): as the sequence (P06213 28-758 limits assumed) above
# T4 sequence (P06213 763-1382 limits assumed): as the sequence (P06213 763-1382 limits assumed) above
# Procedure: The IR transfected 32D cells were seeded at […] in 96-well tissue culture plates and incubated overnight at 37° C. […] The culture media was decanted from the cell culture plates, and the diluted samples were added to the cells. The plates were incubated at 37° C. for 30 min. The stimulation medium was decanted from the plates, and cell lysis buffer (50 mM HEPES pH 7.2, 150 mM NaCl, 0.5% Triton X-100, 1 mM AEBSF, 10 KIU/ml aprotinin, 50 μM leupeptin, and 2 mM sodium orthovanadate) was added. The cells were lysed for 30 min.
# In the ELISA portion of the assay, the cell lysates were added to the BSA-blocked anti-IR unit mAb (Upstate Biotechnology, Lake Placid, N.Y.) coated ELISA plates. After a 2 h incubation, the plates were washed 6 times with PBST and biotinylated anti-phosphotyrosine antibody (Upstate Biotechnology) is added. After another 2 h incubation, the plates were again washed 6 times. Streptavidin-Eu was then added, and the plates were incubated for 1 h. After washing the plates again, EG&G Wallac enhancement solution (100 mM acetone-potassium hydrogen pthalate, pH 3.2; 15 mM 2-naphtyltrifluoroacetate; 50 mM tri(n-octyl)-phosphine oxide; 0.1% Triton X-100) was added into each well, and the plates were placed onto a shaker for 20 min at RT.
# [15] = target: T2, soluble human insulin receptor-immunoglobulin heavy chain chimera (sIR-Fc); assay: TR-FRET competition with biotinylated RP9 (b-RP9) for sIR-Fc; format: binding; conditions: Hill slope; target sIR-Fc; label b-RP9; TR-FRET
# Insulin receptor = target: T5, Insulin receptor (Homo sapiens, UniProt P06213); assay: BIAcore competition, IR binding to immobilized insulin
# T5 construct: replacing the transmembrane domain and the intracellular domain of IR with constant domains from immunoglobulin Fc or λ subunits; made in house; host or cells: human embryonic kidney 293 cells (Bass et al.)
# T5 sequence (P06213 28-758 limits assumed): as the sequence (P06213 28-758 limits assumed) above
# T5 sequence (P06213 763-956 limits assumed): as the sequence (P06213 763-956 limits assumed, stated change not applied) above
# Procedure: Flowcell-1 was used for background binding to correct for any non-specific binding. […] The surface was regenerated with 25 mM NaOH.
compound,measurement,setting,value
"437 (NNNNLGIEGRISEFIEGRAQPAMAFHENFYDWFVRQVSAAAGAPVPYPDPLEPRAA; also: MBP fusion, junction not given here) [Peptide 437]",Act. (activity),IR [1],N—N
CC(C)C[C@H](NC(=O)[C@H](CS)NC(=O)[C@H](CO)NC(=O)[C@H](Cc1ccc(O)cc1)NC(=O)[C@H](Cc1ccccc1)NC(=O)[C@@H](N)[C@@H](C)O)C(=O)N[C@@H](C)C(=O)N[C@@H](CO)C(=O)N[C@@H](CC(C)C)C(=O)N[C@@H](CC(C)C)C(=O)N[C@H](C(=O)NCC(=O)N[C@H](C(=O)N1CCC[C@H]1C(=O)N[C@@H](CCC(N)=O)C(=O)N1CCC[C@H]1C(=O)N[C@@H](CC(N)=O)C(=O)N[C@@H](CCCNC(=N)N)C(=O)NCC(=O)N1CCC[C@H]1C(=O)N[C@@H](Cc1c[nH]c2ccccc12)C(=O)N[C@@H](CCC(=O)O)C(=O)N[C@@H](CCCNC(=N)N)C(=O)N[C@@H](CS)C(=O)N[C@@H](CCCNC(=N)N)C(=O)O)[C@@H](C)O)[C@@H](C)O [RP6] (H-TFYSCLASLLTGTPQPNRGPWERCR-OH; N-terminus and C-terminus assumed),FDC-P2 Antagonist,"[2]; FDC-P2 cell proliferation, antagonist effect",+
same,"antagonist activity at IGF-1R, in words",[2]; FDC-P2 cells,acted as an antagonist
same,EC50,"[2]; read-out: ED50, antagonist activity at IGF-1R, FDC-P2 cells, 10 ng/ml IGF-1 test medium",~1000 nM
same,MCF-7 Antagonist,"MCF-7 cells; MCF-7 cell proliferation, antagonist effect",+
same,"agonist activity at IGF-1R, in words",[3],no agonist activity
same,MiaPaCa Agonist,MiaPaCa cells [4],No
same,MiaPaCa Antagonist,"MiaPaCa cells [5]; MiaPaCa cell proliferation, antagonist effect",No
same,effect on the rate of dissociation of b-20E2 from IGF-1R,IGF-1R [6],dissociation rates of b-20E2 were similar
CC(C)C[C@@H]1NC(=O)[C@@H](NC(=O)[C@H](CO)NC(=O)[C@H](Cc2ccc(O)cc2)NC(=O)[C@H](Cc2ccccc2)NC(=O)[C@@H](N)CO)CSSC[C@@H](C(=O)N[C@@H](CCCNC(=N)N)C(=O)N[C@@H](CCCCN)C(=O)N[C@@H](CCCCN)C(=O)O)NC(=O)CNC(=O)[C@H](CC(=O)O)NC(=O)[C@H](Cc2c[nH]c3ccccc23)NC(=O)[C@H](CCC(N)=O)NC(=O)CNC(=O)[C@H](CCCNC(=N)N)NC(=O)[C@H](CO)NC(=O)[C@H](CCCCN)NC(=O)[C@H](CCC(=O)O)NC(=O)[C@H](C)NC(=O)[C@@H]2CCCN2C(=O)CNC(=O)[C@H](CC(N)=O)NC(=O)[C@H](C(C)C)NC(=O)[C@H](CC(C)C)NC(=O)[C@H](CO)NC(=O)[C@H](CCC(=O)O)NC1=O [RP33-IGF with KK],IC50,MCF-7 cells; MCF-7,100 nM
same,Activ.,MCF-7 cells; proliferation assays in the presence of IGF-1 using MCF-7 and MiaPaCa cells,Antag.
same,IC50,[7],9 nM
same,IC50,MiaPaCa cells [5]; MiaPaCa,700 nM
AFYDWFAKK [Peptide S167],Kd,IR [8],> 20000 nM
FHENFYDWFVRQVSKK [Peptide H2C],"Hill, sIR-Fc, b-S175, FRET",[9],−0.82
same,FFC,[10],+
same,"potency / affinity at IR, in words","[11]; FP with FITC-RP9, summary of Table 22",slightly less potent
same,"Hill, sIR-Fc, FITC-RP9, FP","[11]; Hill slope, target sIR-Fc, label FITC-RP9, fluorescence polarization",−0.27
same,"binding to IGF-1R compared with IR, in words",IGF-1R [12],lower binding ratios for IGF-1R over IR
same,"Hill, sIR, FITC-RP9, FP",[13],−0.49
same,stimulation of autophosphorylation of IR,[14],stimulate autophosphorylation
same,effect on the rate of dissociation of b-20E2 from IGF-1R,IGF-1R [6],dissociation rates of b-20E2 were similar
same,"Hill, sIR-Fc, b-RP9, FRET",[15],−1.03
KWLDQEWAWVQCEVYGRGCPSKK [Peptide D8],% Binding,"Insulin receptor; Table 13, peptide about 40 μM, IR 450 nM, IR alone 100",33%
"maltose binding protein [MBP, reference compound]",Result (RUs),"Insulin receptor; Table 12, IR 450 nM pre-incubated with insulin […], A7 (20A4)-MBP 4.1 μM, D8-MBP […], D10-MBP 3.4 μM, 447-MBP 11.5 μM or MBP 13 μM, IR alone 220 RU",209 RUs
